Reference: patent US12162890B2 (Novartis AG, priority 2015, dated 2024)

Molecular target: HEK293 cells with stable expression of the GRIN1 gene and tetracycline-inducible expression of the GRIN2B gene (NMDA receptor, NR2B) (Homo sapiens, UniProt Q13224)
Assay: Fluo-8 Ca2+ flux assay: reversal of Ro 25-6981-mediated suppression of the Ca2+ response to co-agonist (glutamate/glycine); also: test concentration or dose not given here
Assay type: cell-based
Settings: reversal of the Ro 25-6981 suppression of the Ca2+ response to co-agonist (glutamate/glycine)

Chain of HEK293 cells with stable expression of the GRIN1 gene and tetracycline-inducible expression of the GRIN2B gene (NMDA receptor, NR2B) (Q13224 27-1484, other chains not shown): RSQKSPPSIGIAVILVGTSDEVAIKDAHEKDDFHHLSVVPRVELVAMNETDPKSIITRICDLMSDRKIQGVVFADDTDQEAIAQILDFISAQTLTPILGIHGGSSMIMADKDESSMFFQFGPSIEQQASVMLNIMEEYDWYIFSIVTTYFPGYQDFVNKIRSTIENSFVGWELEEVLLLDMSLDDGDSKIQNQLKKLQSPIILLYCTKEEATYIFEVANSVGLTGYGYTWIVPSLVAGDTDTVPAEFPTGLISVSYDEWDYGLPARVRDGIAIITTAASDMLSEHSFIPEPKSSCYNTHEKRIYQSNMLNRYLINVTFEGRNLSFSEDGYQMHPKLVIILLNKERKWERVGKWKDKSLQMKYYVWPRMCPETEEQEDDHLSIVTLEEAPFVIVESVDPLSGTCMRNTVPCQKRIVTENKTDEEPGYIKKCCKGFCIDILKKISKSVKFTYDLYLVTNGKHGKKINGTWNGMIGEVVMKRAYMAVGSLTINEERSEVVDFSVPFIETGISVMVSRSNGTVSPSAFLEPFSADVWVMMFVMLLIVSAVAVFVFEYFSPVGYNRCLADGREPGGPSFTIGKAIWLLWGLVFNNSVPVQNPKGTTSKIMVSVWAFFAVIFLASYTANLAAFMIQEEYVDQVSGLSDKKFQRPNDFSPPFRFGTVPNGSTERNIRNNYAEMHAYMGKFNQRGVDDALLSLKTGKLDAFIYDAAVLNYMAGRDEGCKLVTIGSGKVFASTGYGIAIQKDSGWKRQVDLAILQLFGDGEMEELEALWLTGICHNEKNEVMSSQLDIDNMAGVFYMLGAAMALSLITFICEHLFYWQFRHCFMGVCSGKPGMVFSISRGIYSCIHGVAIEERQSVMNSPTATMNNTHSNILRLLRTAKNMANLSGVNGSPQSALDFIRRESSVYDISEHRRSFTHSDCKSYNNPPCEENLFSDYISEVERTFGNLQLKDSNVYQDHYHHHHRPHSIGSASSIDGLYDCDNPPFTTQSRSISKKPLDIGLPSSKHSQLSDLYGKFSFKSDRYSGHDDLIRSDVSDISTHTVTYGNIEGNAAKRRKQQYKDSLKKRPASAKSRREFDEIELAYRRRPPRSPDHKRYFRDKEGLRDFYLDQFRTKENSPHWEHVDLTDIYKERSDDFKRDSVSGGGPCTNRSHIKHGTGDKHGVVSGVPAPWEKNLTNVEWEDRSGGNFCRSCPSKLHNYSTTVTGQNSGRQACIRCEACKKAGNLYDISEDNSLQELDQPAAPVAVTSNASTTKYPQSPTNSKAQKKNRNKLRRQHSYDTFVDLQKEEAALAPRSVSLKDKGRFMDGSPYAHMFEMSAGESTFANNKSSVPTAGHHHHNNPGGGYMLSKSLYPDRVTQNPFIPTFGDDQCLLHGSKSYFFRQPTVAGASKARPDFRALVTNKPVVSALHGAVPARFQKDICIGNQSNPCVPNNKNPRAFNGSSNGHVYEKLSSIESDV

Row | Structure (SMILES) | Response Recovered (%)
1 | CC1(O)CN(C(=O)Cn2ccc3scc(-c4ccc(Cl)c(Cl)c4)c3c2=O)C1 [Example 61, 3-(3,4-dichlorophenyl)-5-(2-(3-hydroxy-3-methylazetidin-1-yl)-2-oxoethyl)thieno[3,2-c]pyridin-4(5H)-one] | 16
2 | O=C(Cn1cc(CN2CC(F)C2)c2scc(-c3ccc(F)c(Cl)c3)c2c1=O)N1CCC(F)C1 (centres unmarked) [Example 125, 3-(3-chloro-4-fluorophenyl)-7-((3-fluoroazetidin-1-yl)methyl)-5-(2-(3-fluoropyrrolidin-1-yl)-2-oxoethyl)thieno[3,2-c]pyridin-4(5H)-one] | 53
3 | CN(CC(F)(F)F)C(=O)Cn1ccc2scc(-c3ccc(F)c(Cl)c3)c2c1=O [Example 93, 2-(3-(3-chloro-4-fluorophenyl)-4-oxothieno[3,2-c]pyridin-5(4H)-yl)-N-methyl-N-(2,2,2-trifluoroethyl)acetamide] | 4.1
4 | CCC1(F)CN(C(=O)Cn2ccn3ccc(-c4cnc(Cl)c(Cl)c4)c3c2=O)C1 [Example 405, 8-(5,6-dichloropyridin-3-yl)-2-(2-(3-ethyl-3-fluoroazetidin-1-yl)-2-oxoethyl)pyrrolo[1,2-a]pyrazin-1(2H)-one] | 61
5 | O=C(Cn1cnc2snc(-c3ccc(Cl)cc3)c2c1=O)N1CCCC1C(F)(F)F (centres unmarked) [Example 382, 3-(4-chlorophenyl)-5-(2-oxo-2-(2-(trifluoromethyl)pyrrolidin-1-yl)ethyl)isothiazolo[5,4-d]pyrimidin-4(5H)-one] | 9
6 | CCn1cc(-c2ccc(F)c(Cl)c2)c2c(=O)n(CC(=O)N3CC(F)(F)C3)cnc21 [Example 163, 5-(3-chloro-4-fluorophenyl)-3-(2-(3,3-difluoroazetidin-1-yl)-2-oxoethyl)-7-ethyl-3H-pyrrolo[2,3-d]pyrimidin-4(7H)-one] | 48
7 | O=C(Cn1cnc2[nH]cc(-c3ccc(Cl)c(Cl)c3)c2c1=O)N1CCC(F)C1 (centres unmarked) [Example 175, 5-(3,4-dichlorophenyl)-3-(2-(3-fluoropyrrolidin-1-yl)-2-oxoethyl)-3H-pyrrolo[2,3-d]pyrimidin-4(7H)-one] | 77
8 | COCn1cc(-c2ccc(F)c(C(F)(F)F)c2)c2c(=O)n(CC(=O)N3CCC(F)C3)cnc21 (centres unmarked) [Example 189, 5-(4-fluoro-3-(trifluoromethyl)phenyl)-3-(2-(3-fluoropyrrolidin-1-yl)-2-oxoethyl)-7-(methoxymethyl)-3H-pyrrolo[2,3-d]pyrimidin-4(7H)-one] | 39
9 | O=C(Cn1cnc2c(c(-c3ccc(F)c(Cl)c3)cn2C2CC2)c1=O)N1CCCC1 [Example 192, 5-(3-chloro-4-fluorophenyl)-7-cyclopropyl-3-(2-oxo-2-(pyrrolidin-1-yl)ethyl)-3H-pyrrolo[2,3-d]pyrimidin-4(7H)-one] | 42
10 | O=C(Cn1ccn2ccc(-c3ccc(F)c(Cl)c3)c2c1=O)N1CC(F)(c2ccccc2)C1 [Example 399, 8-(3-chloro-4-fluorophenyl)-2-(2-(3-fluoro-3-phenylazetidin-1-yl)-2-oxoethyl)pyrrolo[1,2-a]pyrazin-1(2H)-one] | 1.5
11 | O=C(Cn1cnc2csc(-c3ccc(Cl)c(C(F)(F)F)c3)c2c1=O)N1CCCC1 [Example 366, 5-(4-chloro-3-(trifluoromethyl)phenyl)-3-(2-oxo-2-(pyrrolidin-1-yl)ethyl)thieno[3,4-d]pyrimidin-4(3H)-one] | 34
12 | Cc1cc(-c2ccn3ccn(CC(=O)N4CC(F)(CF)C4)c(=O)c23)cnc1Cl [Example 409, 8-(6-chloro-5-methylpyridin-3-yl)-2-(2-(3-fluoro-3-(fluoromethyl)azetidin-1-yl)-2-oxoethyl)pyrrolo[1,2-a]pyrazin-1(2H)-one] | 33
13 | CC1(N)CN(C(=O)Cn2ccc3scc(-c4ccc(F)c(C(F)(F)F)c4)c3c2=O)C1 [Example 96, 5-(2-(3-amino-3-methylazetidin-1-yl)-2-oxoethyl)-3-(4-fluoro-3-(trifluoromethyl)phenyl)thieno[3,2-c]pyridin-4(5H)-one] | 43
14 | O=C(Cn1ccn2ccc(-c3ccc(F)c(Cl)c3)c2c1=O)N1CC(F)(C2CC2)C1 [Example 398, 8-(3-chloro-4-fluorophenyl)-2-(2-(3-cyclopropyl-3-fluoroazetidin-1-yl)-2-oxoethyl)pyrrolo[1,2-a]pyrazin-1(2H)-one] | 43
15 | Cc1cn(CC(=O)N2CCC(F)C2)c(=O)c2c(-c3ccc(F)c(Cl)c3)ccn12 (centres unmarked) [Example 414, 8-(3-chloro-4-fluorophenyl)-2-(2-(3-fluoropyrrolidin-1-yl)-2-oxoethyl)-4-methylpyrrolo[1,2-a]pyrazin-1(2H)-one] | 112
16 | O=C(Cn1ccc2scc(-c3ccc(F)c(C(F)(F)F)c3)c2c1=O)N1CC(F)(c2ccccc2)C1 [Example 54, 3-(4-fluoro-3-(trifluoromethyl)phen-yl)-5-(2-(3-fluoro-3-phenylazetidin-1-yl)-2-oxoethyl)thieno[3,2-c]pyridin-4(5H)-one] | 17

Row | Structure (SMILES) | Response Recovered (%)
17 | O=C(Cn1cnc2[nH]cc(-c3ccc(C(F)(F)F)c(Cl)c3)c2c1=O)N1CCC(F)C1 (centres unmarked) [Example 176, 5-(3-chloro-4-(trifluoromethyl)phenyl)-3-(2-(3-fluoropyrrolidin-1-yl)-2-oxoethyl)-3H-pyrrolo[2,3-d]pyrimidin-4(7H)-one] | 63
18 | Cn1cc(-c2ccc(Cl)cc2)c2c(=O)n(CC(=O)N3CCCC3C(F)(F)F)cnc21 (centres unmarked) [Example 153, 5-(4-chlorophenyl)-7-methyl-3-(2-oxo-2-(2-(trifluoromethyl)pyrrolidin-1-yl)ethyl)-3H-pyrrolo[2,3-d]pyrimidin-4(7H)-one] | 35
19 | Cc1nnc(-n2cc(-c3ccc(F)c(Cl)c3)c3c(=O)n(CC(=O)N4CCC(F)C4)ccc32)o1 (centres unmarked) [Example 264, 3-(3-chloro-4-fluorophenyl)-5-(2-(3-fluoropyrrolidin-1-yl)-2-oxoethyl)-1-(5-methyl-1,3,4-oxadiazol-2-yl)-1H-pyrrolo[3,2-c]pyridin-4(5H)-one] | 49
20 | COCc1cn(CC(=O)N2CCC(F)C2)c(=O)c2c(-c3ccc(F)c(C(F)(F)F)c3)csc12 (centres unmarked) [Example 126, 3-(4-fluoro-3-(trifluoromethyl)phenyl)-5-(2-(3-fluoropyrrolidin-1-yl)-2-oxoethyl)-7-(methoxymethyl)thieno[3,2-c]pyridin-4(5H)-one] | 46
21 | O=C(Cn1cnc2csc(-c3ccc(Cl)cc3)c2c1=O)N1CCC(F)(F)CC1 [Example 353, 5-(4-chlorophenyl)-3-(2-(4,4-difluoropiperidin-1-yl)-2-oxoethyl)thieno[3,4-d]pyrimidin-4(3H)one] | 1
22 | O=C(Cn1ccc2scc(-c3ccc(F)c(Cl)c3)c2c1=O)N1CC[C@@H](F)C1 [Example 41, (R)-3-(3-chloro-4-fluorophenyl)-5-(2-(3-fluoropyrrolidin-1-yl)-2-oxoethyl)thieno[3,2-c]pyridin-4(5H)-one] | 77
23 | O=C(Cn1ccc2[nH]cc(-c3ccc(F)c(C(F)(F)F)c3)c2c1=O)N1CC(F)C(F)C1 (centres unmarked) [Example 220, 5-(2-(3,4-difluoropyrrolidin-1-yl)-2-oxoethyl)-3-(4-fluoro-3-(trifluoromethyl)phenyl)-1H-pyrrolo[3,2-c]pyridin-4(5H)-one] | 120
24 | O=C(Cn1ccc2scc(-c3ccc(C(F)(F)F)c(Cl)c3)c2c1=O)N1CCC(F)C1 (centres unmarked) [Example 13, 3-(3-chloro-4-(trifluoromethyl)phenyl)-5-(2-(3-fluoropyrrolidin-1-yl)-2-oxoethyl)thieno[3,2-c]pyridin-4(5H)-one] | 90
25 | O=C(CCn1ccc2scc(-c3ccc(Cl)c(C(F)(F)F)c3)c2c1=O)N1CCC(F)C1 (centres unmarked) [Example 24, 3-(4-chloro-3-(trifluoromethyl)phenyl)-5-(3-(3-fluoropyrrolidin-1-yl)-3-oxopropyl)thieno[3,2-c]pyridin-4(5H)-one] | 3
26 | Cn1cnc(-n2cc(-c3ccc(F)c(C(F)(F)F)c3)c3c(=O)n(CC(=O)N4CC(C)(F)C4)ccc32)n1 [Example 268, 3-(4-fluoro-3-(trifluoromethyl)phenyl)-5-(2-(3-fluoro-3-methylazetidin-1-yl)-2-oxoethyl)-1-(1-methyl-1H-1,2,4-triazol-3-yl)-1H-pyrrolo[3,2-c]pyridin-4(5H)-one] | 52
27 | CC(C)(O)Cn1cc(-c2ccc(F)c(Cl)c2)c2c(=O)n(CC(=O)N3CCC(F)C3)ccc21 (centres unmarked) [Example 259, 3-(3-chloro-4-fluorophenyl)-5-(2-(3-fluoropyrrolidin-1-yl)-2-oxoethyl)-1-(2-hydroxy-2-methylpropyl)-1H-pyrrolo[3,2-c]pyridin-4(5H)-one] | 35
28 | O=C(Cn1cnc2snc(-c3ccc(Cl)cc3)c2c1=O)N1CC(F)(F)C1 [Example 381, 3-(4-chlorophenyl)-5-(2-(3,3-difluoroazetidin-1-yl)-2-oxoethyl)isothiazolo[5,4-d]pyrimidin-4(5H)-one] | 2
29 | O=C(Cn1nnc2scc(-c3ccc(F)c(Cl)c3)c2c1=O)N1CCCC1 [Example 330, 5-(3-chloro-4-fluorophenyl)-3-(2-oxo-2-(pyrrolidin-1-yl)ethyl)thieno[2,3-d][1,2,3]triazin-4(3H)-one] | 6
30 | CC1(NC(=O)OC(C)(C)C)CN(C(=O)Cn2ccc3scc(-c4ccc(F)c(Cl)c4)c3c2=O)C1 [Example 74, tert-butyl (1-(2-(3-(3-chloro-4-fluorophenyl)-4-oxothieno[3,2-c]pyridin-5(4H)-yl)acetyl)-3-methylazetidin-3-yl)carbamate] | 4.7
31 | O=C(Cn1ccc2scc(-c3cnc(Cl)c(Cl)c3)c2c1=O)N1CC(F)(C2CC2)C1 [Example 70, 5-(2-(3-cyclopropyl-3-fluoroazetidin-1-yl)-2-oxoethyl)-3-(5,6-dichloropyridin-3-yl)thieno[3,2-c]pyridin-4(5H)-one] | 64
32 | Cc1cn(CC(=O)N2CC(C)(F)C2)c(=O)c2c(-c3ccc(Cl)c(Cl)c3)ccn12 [Example 419, 8-(3,4-dichlorophenyl)-2-(2-(3-fluoro-3-methylazetidin-1-yl)-2-oxoethyl)-4-methylpyrrolo[1,2-a]pyrazin-1(2H)-one] | 110
